Measured values reported in patent US9980943B2, “Methods of treating muscular dystrophy” (BOARD OF REGENTS OF THE NEVADA SYSTEM OF HIGHER EDUCATION, …, priority 2013, dated 2018).

Legend:
Type in all cases: cell-based, mouse
[1] = tested on: α7 integrin (LacZ reporter in α7βgal+/− myoblasts); test: Myoblast α7+/LacZ integrin FDG assay (Burkin assay in myoblasts, 96-well); conditions: for Burkin Assay in Myoblasts, signal relative to DMSO: α7+/LacZ myoblasts, 96-well
[2] = tested on: α7 integrin (LacZ reporter in α7+/LacZ myotubes); test: Myotube α7 integrin FDG assay (Burkin assay in myotubes, 96-well); conditions: for Burkin Assay in Myotubes, value relative to DMSO: SU9516 analogs, 96-well, N=3-6
[3] = tested on: β-galactosidase in CMV-LacZ C2C12 myoblasts; test: CMV-LacZ secondary screen in C2C12 myoblasts (β-Gal stabilizing assay); conditions: for CMV-LACZ in Myoblasts (β-galactosidase activity relative to DMSO): CMV-LacZ C2C12 myoblasts; for CMV-LACZ in Myoblasts, value relative to DMSO: SU9516 analogs, C2C12 CMV-LacZ, N=2
Summary of the method: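 A secondary screen identifies compounds that stabilize β-gal independently of the native promoter, using CMV-LacZ C2C12 cells. Curves span 0.5–40 μM at six levels, in duplicate.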

[4] = tested on: β-galactosidase in CMV-LacZ C2C12 myotubes; test: CMV-LacZ secondary screen in C2C12 myotubes (β-Gal stabilizing assay); conditions: for CMV-LACZ in Myotubes, signal relative to DMSO: C2C12 CMV-LacZ myotubes, fold relative to DMSO; for CMV-LACZ in Myotubes, value relative to DMSO: SU9516 analogs, C2C12 CMV-LacZ, N=2
Summary of the method: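 β-gal stabilization was measured in C2C12 myoblasts or myotubes stably transfected with a CMV-driven LacZ construct, using the FDG β-gal assay. Compounds were tested in dose-response at 0.5, 1, 5, 10, 20 and 40 μM, with two replicates per point.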

[5] = Mus musculus, Myoblast, 48 h, read-out: Burkin Assay in Myoblasts, value relative to DMSO

For `Cl.O=C1C2CCCN2C(=O)N1CCCN1CCN(c2cccc(Br)c2)CC1` (stereo not drawn) [MLS001180929-01], the “Burkin Assay in Myoblasts, signal relative to DMSO” value ([1]; 0.5 uM) was 1.077, the “Burkin Assay in Myoblasts, signal relative to DMSO” value ([1]; 1 uM) was 1.0555 and the “Burkin Assay in Myoblasts, signal relative to DMSO” value ([1]; 5 uM) was 1.05. The “Burkin Assay in Myoblasts, signal relative to DMSO” value ([1]; 10 uM) was 1.05, the “Burkin Assay in Myoblasts, signal relative to DMSO” value ([1]; 20 uM) was 1.102 and the “Burkin Assay in Myoblasts, signal relative to DMSO” value ([1]; 40 uM) was 1.1941. For the same compound, the “Burkin Assay in Myotubes, α7 integrin LacZ reporter signal relative to DMSO” value ([2]; 0.5 uM) was 0.899, the “Burkin Assay in Myotubes, α7 integrin LacZ reporter signal relative to DMSO” value ([2]; 1 uM) was 0.9256 and the “Burkin Assay in Myotubes, α7 integrin LacZ reporter signal relative to DMSO” value ([2]; 5 uM) was 0.9643. The “Burkin Assay in Myotubes, α7 integrin LacZ reporter signal relative to DMSO” value ([2]; 10 uM) was 1.03, the “Burkin Assay in Myotubes, α7 integrin LacZ reporter signal relative to DMSO” value ([2]; 20 uM) was 0.8659 and the “Burkin Assay in Myotubes, α7 integrin LacZ reporter signal relative to DMSO” value ([2]; 40 uM) was 1.135. For the same compound, the “CMV-LACZ in Myoblasts (β-galactosidase activity relative to DMSO)” value ([3]; 0.5 uM) was 0.8571, the “CMV-LACZ in Myoblasts (β-galactosidase activity relative to DMSO)” value ([3]; 1 uM) was 0.9288 and the “CMV-LACZ in Myoblasts (β-galactosidase activity relative to DMSO)” value ([3]; 5 uM) was 0.8251. The “CMV-LACZ in Myoblasts (β-galactosidase activity relative to DMSO)” value ([3]; 10 uM) was 0.8753, the “CMV-LACZ in Myoblasts (β-galactosidase activity relative to DMSO)” value ([3]; 20 uM) was 0.9811 and the “CMV-LACZ in Myoblasts (β-galactosidase activity relative to DMSO)” value ([3]; 40 uM) was 0.6163. For the same compound, the “CMV-LACZ in Myotubes, signal relative to DMSO” value ([4]; 0.5 uM) was 0.8848, the “CMV-LACZ in Myotubes, signal relative to DMSO” value ([4]; 1 uM) was 0.7876 and the “CMV-LACZ in Myotubes, signal relative to DMSO” value ([4]; 5 uM) was 1.0533. For the same compound, the “CMV-LACZ in Myotubes, signal relative to DMSO” value ([4]; 10 uM) was 1.0084, the “CMV-LACZ in Myotubes, signal relative to DMSO” value ([4]; 20 uM) was 1.1347 and the “CMV-LACZ in Myotubes, signal relative to DMSO” value ([4]; 40 uM) was 1.0274.
`O=c1[nH]c2ccccc2nc1-c1c[nH]c2ccccc12` [MLS001181936-01] was tested, and the “Burkin Assay in Myoblasts, signal relative to DMSO” value ([1]; 0.5 uM) was 0.8443, the “Burkin Assay in Myoblasts, signal relative to DMSO” value ([1]; 1 uM) was 0.7562 and the “Burkin Assay in Myoblasts, signal relative to DMSO” value ([1]; 5 uM) was 0.8573. The “Burkin Assay in Myoblasts, signal relative to DMSO” value ([1]; 10 uM) was 0.8219, the “Burkin Assay in Myoblasts, signal relative to DMSO” value ([1]; 20 uM) was 0.51 and the “Burkin Assay in Myoblasts, signal relative to DMSO” value ([1]; 40 uM) was 0.3285. The “Burkin Assay in Myotubes, α7 integrin LacZ reporter signal relative to DMSO” value ([2]; 0.5 uM) was 0.9197, the “Burkin Assay in Myotubes, α7 integrin LacZ reporter signal relative to DMSO” value ([2]; 1 uM) was 0.7633 and the “Burkin Assay in Myotubes, α7 integrin LacZ reporter signal relative to DMSO” value ([2]; 5 uM) was 0.9856. The “Burkin Assay in Myotubes, α7 integrin LacZ reporter signal relative to DMSO” value ([2]; 10 uM) was 1.024, the “Burkin Assay in Myotubes, α7 integrin LacZ reporter signal relative to DMSO” value ([2]; 20 uM) was 0.5868 and the “Burkin Assay in Myotubes, α7 integrin LacZ reporter signal relative to DMSO” value ([2]; 40 uM) was 0.7387. For the same compound, the “CMV-LACZ in Myoblasts (β-galactosidase activity relative to DMSO)” value ([3]; 0.5 uM) was 0.8487, the “CMV-LACZ in Myoblasts (β-galactosidase activity relative to DMSO)” value ([3]; 1 uM) was 0.9273 and the “CMV-LACZ in Myoblasts (β-galactosidase activity relative to DMSO)” value ([3]; 5 uM) was 0.7292. For the same compound, the “CMV-LACZ in Myoblasts (β-galactosidase activity relative to DMSO)” value ([3]; 10 uM) was 0.8296, the “CMV-LACZ in Myoblasts (β-galactosidase activity relative to DMSO)” value ([3]; 20 uM) was 0.7863 and the “CMV-LACZ in Myoblasts (β-galactosidase activity relative to DMSO)” value ([3]; 40 uM) was 0.6130. The “CMV-LACZ in Myotubes, signal relative to DMSO” value ([4]; 0.5 uM) was 1.0705, the “CMV-LACZ in Myotubes, signal relative to DMSO” value ([4]; 1 uM) was 0.9886 and the “CMV-LACZ in Myotubes, signal relative to DMSO” value ([4]; 5 uM) was 0.9246. The “CMV-LACZ in Myotubes, signal relative to DMSO” value ([4]; 10 uM) was 1.0274, the “CMV-LACZ in Myotubes, signal relative to DMSO” value ([4]; 20 uM) was 0.9020 and the “CMV-LACZ in Myotubes, signal relative to DMSO” value ([4]; 40 uM) was 1.0280.
`O=C1Nc2ccccc2/C1=C/c1ccnc2ccccc12` [MLS001182278-01] was tested, and the fold induction at 0.5 µM [1, 5] was 1.21, the fold induction at 1 µM [1, 5] was 1.07 and the fold induction at 5 µM [1, 5] was 1.06. For the same compound, the fold induction at 10 µM [1, 5] was 1.17, the fold induction at 20 µM [1, 5] was 0.766 and the fold induction at 40 µM [1, 5] was 0.842. For the same compound, the “Burkin Assay in Myotubes, value relative to DMSO” value ([2]; 0.5 uM) was 1.1969, the “Burkin Assay in Myotubes, value relative to DMSO” value ([2]; 1 uM) was 1.118 and the “Burkin Assay in Myotubes, value relative to DMSO” value ([2]; 5 uM) was 1.402. The “Burkin Assay in Myotubes, value relative to DMSO” value ([2]; 10 uM) was 1.412, the “Burkin Assay in Myotubes, value relative to DMSO” value ([2]; 20 uM) was 0.5653 and the “Burkin Assay in Myotubes, value relative to DMSO” value ([2]; 40 uM) was 0.6488. The “CMV-LACZ in Myoblasts, value relative to DMSO” value ([3]; 0.5 uM) was 0.7466, the “CMV-LACZ in Myoblasts, value relative to DMSO” value ([3]; 1 uM) was 0.9491 and the “CMV-LACZ in Myoblasts, value relative to DMSO” value ([3]; 5 uM) was 0.9823. The “CMV-LACZ in Myoblasts, value relative to DMSO” value ([3]; 10 uM) was 0.9778, the “CMV-LACZ in Myoblasts, value relative to DMSO” value ([3]; 20 uM) was 1.0519 and the “CMV-LACZ in Myoblasts, value relative to DMSO” value ([3]; 40 uM) was 0.5959. For the same compound, the “CMV-LACZ in Myotubes, value relative to DMSO” value ([4]; 0.5 uM) was 0.9674, the “CMV-LACZ in Myotubes, value relative to DMSO” value ([4]; 1 uM) was 1.0126 and the “CMV-LACZ in Myotubes, value relative to DMSO” value ([4]; 5 uM) was 1.0327. For the same compound, the “CMV-LACZ in Myotubes, value relative to DMSO” value ([4]; 10 uM) was 1.0297, the “CMV-LACZ in Myotubes, value relative to DMSO” value ([4]; 20 uM) was 1.0224 and the “CMV-LACZ in Myotubes, value relative to DMSO” value ([4]; 40 uM) was 1.1212.
